Measurements published in ChEMBL document CHEMBL3885861, “Open TG-GATES”.

Organism: Rattus norvegicus
Experiment: Open TG-GATES - Regimen: Single
Type: toxicity, organism-based, Sprague-Dawley
Parameters: regimen Single, gender Male, age 6 weeks
Settings: in vivo, po, 0 mg/kg, route gavage, dose level Control; for APTT / Bas / Eos / Fbg / Hb / Ht / Lym / MCH / MCHC / MCV / Mono / Neu / PT / Plat / RBC / Ret / WBC: tissue Blood; for KIDNEY_L / KIDNEY_R / KIDNEY_TOTAL: tissue Kidney; for LIVER: tissue Liver; for A/G / ALP / ALT / AST / BUN / CRE / Ca / Cl / DBIL / GLC / IP / K / LDH / Na / PL / RALB / TBIL / TC / TG / TP / gamma-GTP: tissue Plasma

## Cn1c(=O)c2[nH]cnc2n(C)c1=O.O [THEOPHYLLINE]
3 h
  TERMINAL_BW: 221.7 g
  APTT: 22.2 s
  Bas: 0%
  Eos: 0.8%
  Fbg: 289.8 mg/dL
  Hb: 13.1 g/dL
  Ht: 39.5%
  Lym: 83.2%
  MCH: 20.7 pg
  MCHC: 33.2%
  MCV: 62.5 fL
  Mono: 1.8%
  Neu: 13.6%
  PT: 15.5 s
  Plat: 119 x10_4/uL
  RBC: 632.2 x10_4/ul
  Ret: 8.4%
  WBC: 101.2 x10_2/uL
  KIDNEY_L: 1 g
  KIDNEY_R: 1 g
  KIDNEY_TOTAL: 2 g
  LIVER: 10.3 g
  A/G: 1.3
  ALP: 1309 IU/L
  ALT: 43.6 IU/L
  AST: 70 IU/L
  BUN: 13.8 mg/dL
  CRE: 0.2 mg/dL
  Ca: 10.5 mg/dL
  Cl: 105 meq/L
  DBIL: 0 mg/dL
  GLC: 190.4 mg/dL
  IP: 8.8 mg/dL
  K: 4.2 meq/L
  LDH: 179 IU/L
  Na: 142.6 meq/L
  PL: 135.8 mg/dL
  RALB: 3 g/dL
  TBIL: 0.018 mg/dL
  TC: 77.4 mg/dL
  TG: 49.2 mg/dL
  TP: 5.3 g/dL
  gamma-GTP: 1.2 IU/L
6 h
  TERMINAL_BW: 213.2 g
  APTT: 21.5 s
  Bas: 0%
  Eos: 0.6%
  Fbg: 300.6 mg/dL
  Hb: 13.7 g/dL
  Ht: 40.9%
  Lym: 82.2%
  MCH: 20.8 pg
  MCHC: 33.4%
  MCV: 62.3 fL
  Mono: 2.6%
  Neu: 13.2%
  PT: 15.6 s
  Plat: 118.7 x10_4/uL
  RBC: 657.2 x10_4/ul
  Ret: 7.4%
  WBC: 102.6 x10_2/uL
  KIDNEY_L: 1 g
  KIDNEY_R: 1 g
  KIDNEY_TOTAL: 1.9 g
  LIVER: 9.1 g
  A/G: 1.2
  ALP: 1402.8 IU/L
  ALT: 39.8 IU/L
  AST: 75.6 IU/L
  BUN: 10.8 mg/dL
  CRE: 0.1 mg/dL
  Ca: 10.4 mg/dL
  Cl: 105.8 meq/L
  DBIL: 0 mg/dL
  GLC: 183.8 mg/dL
  IP: 9.3 mg/dL
  K: 4.4 meq/L
  LDH: 202 IU/L
  Na: 142.6 meq/L
  PL: 124.6 mg/dL
  RALB: 2.9 g/dL
  TBIL: 0.024 mg/dL
  TC: 72.8 mg/dL
  TG: 48.2 mg/dL
  TP: 5.4 g/dL
  gamma-GTP: 1 IU/L
9 h
  TERMINAL_BW: 212.6 g
  APTT: 22.9 s
  Bas: 0%
  Eos: 0.8%
  Fbg: 310.2 mg/dL
  Hb: 13.3 g/dL
  Ht: 39.9%
  Lym: 77.6%
  MCH: 20.5 pg
  MCHC: 33.3%
  MCV: 61.6 fL
  Mono: 2.4%
  Neu: 18%
  PT: 15.8 s
  Plat: 119 x10_4/uL
  RBC: 649.6 x10_4/ul
  Ret: 7.5%
  WBC: 79.6 x10_2/uL
  KIDNEY_L: 1 g
  KIDNEY_R: 1 g
  KIDNEY_TOTAL: 2 g
  LIVER: 8.6 g
  A/G: 1.2
  ALP: 1444.4 IU/L
  ALT: 35.2 IU/L
  AST: 70.4 IU/L
  BUN: 12.6 mg/dL
  CRE: 0.2 mg/dL
  Ca: 10.8 mg/dL
  Cl: 105.8 meq/L
  DBIL: 0 mg/dL
  GLC: 188 mg/dL
  IP: 9.2 mg/dL
  K: 4.3 meq/L
  LDH: 180.6 IU/L
  Na: 140.8 meq/L
  PL: 125.6 mg/dL
  RALB: 3.1 g/dL
  TBIL: 0.022 mg/dL
  TC: 73.2 mg/dL
  TG: 52.8 mg/dL
  TP: 5.5 g/dL
  gamma-GTP: 1 IU/L
24 h
  TERMINAL_BW: 228.3 g
  APTT: 21.9 s
  Bas: 0%
  Eos: 1%
  Fbg: 291.2 mg/dL
  Hb: 13.6 g/dL
  Ht: 40.4%
  Lym: 82.2%
  MCH: 20.8 pg
  MCHC: 33.7%
  MCV: 61.5 fL
  Mono: 2.6%
  Neu: 13%
  PT: 15.9 s
  Plat: 115.8 x10_4/uL
  RBC: 657 x10_4/ul
  Ret: 6.9%
  WBC: 97 x10_2/uL
  KIDNEY_L: 1 g
  KIDNEY_R: 1 g
  KIDNEY_TOTAL: 2 g
  LIVER: 10.4 g
  A/G: 1.2
  ALP: 1398.8 IU/L
  ALT: 40.8 IU/L
  AST: 69.4 IU/L
  BUN: 16.6 mg/dL
  CRE: 0.2 mg/dL
  Ca: 10.9 mg/dL
  Cl: 106.2 meq/L
  DBIL: 0 mg/dL
  GLC: 193.4 mg/dL
  IP: 7.7 mg/dL
  K: 4.3 meq/L
  LDH: 221 IU/L
  Na: 143.4 meq/L
  PL: 151.6 mg/dL
  RALB: 3 g/dL
  TBIL: 0.008 mg/dL
  TC: 80.4 mg/dL
  TG: 100.2 mg/dL
  TP: 5.5 g/dL
  gamma-GTP: 1.2 IU/L
